# Test results as given in US4745223A, “Mono-tertiary-alkylated toluenediamine and derivatives” (Air Products and Chemicals, Inc., priority 1985, dated 1988).
# What was measured:
# [1] = Pot life test of chain extenders in polyurethane-urea formulation; settings: 50° C., log (relative viscosity) = I + A*(time) + B*(time)**2 + C*(time)**3
# Description: A series of polyurethane-urea elastomers utilizing various chain extenders was prepared and evaluated in a pot life test system for the purpose of determining the reactivity of the chain extenders in standard urethane formulations relative to one another. The polyurethane-urea elastomers were formulated by reacting a prepolymer of poly(1,4-oxytetramethylene)glycol end-capped with 2,4-toluene diisocyanate, the prepolymer having an NCO content generally from 5-7%, with the test candidate chain extender aromatic diamine and a diol. The nominal stoichiometric equivalent ratio of isocyanate to diamine chain extender to diol for each sample is 2:1:1.
# The test system for measuring pot life comprised a heated test chamber for holding 7 grams of test sample at a constant temperature (50° C.) and was equipped with a vertical perforated piston. This piston moves up and down through the test sample in timed relationship. (The temperature rise due to the exothermic reaction is discounted.) The force necessary to move the piston through the polymer sample is measured in arbitrary units, and the relationship of the force is plotted as a function of time. The force-pot life relationship of the urethane system during cure then is correlated to known force-viscosity relationships for the urethane-urea systems.
# The coefficients apply to the equation:
# log (viscosity)=I+A(time)+B(time)^2 +C(time)^3.
# The coefficient of the first power term ("A") is a "quasi" reaction rate constant measuring initial reactivity. Smaller values in the quasi rate constant (A) indicate longer and desirable pot lives. The value T-5000 is the time in which the reaction product has a relative viscosity of 5000 units. Even though the value is an arbitrary value, that value is relevant for use in determining the performance of the test candidate in a RIM process or cast elastomers process. For injection molding of modest size parts, T-5000 may be about 2.5 minutes; whereas, the molding of large or intricate parts may require a T-5000 of greater than 5 minutes, e.g., 10 to 40 minutes for hand casting.
# [2] = tested on: Salmonella strain TA1537; assay: Ames mutagenic assay, strain (TA1537), without (-) and with (+) metabolic activation; type: cell-based; settings: first strain column, TA1537 as printed
# Description: (§1) A series of chain extenders was tested in the Ames mutagenic assay using five strains of Salmonella bacteria without (-) and with (+) metabolic activation. Table 6 provides the results of various test compounds including a variety of known aromatic diamine chain extenders against these five strains of Salmonella bacteria. The data are presented as the quantity of test compound in micrograms per test plate that gave positive mutagencity results.
# (§2) From Pharmakon Research International, the Ames test data evaluation criteria in Table 5 are clearly defined: "In most tests with the Salmonella/Microsome Assay, results are either clearly positive or clearly negative. A positive result is defined as a reproducible, dose-related increase in the number of histidine-independent colonies. This dose-response relationship occasionally necessitates slight modification of the original doses in a repeat assay. If the historical control is within one standard deviation of the historical mean and the test chemical produces the highest increase equal to or greater than three times the solvent control value, the test chemical is considered positive. A negative result is defined as the absence of a reproducible increase in the number of histidine-independent colonies."
# [3] = tested on: Salmonella strain TA1537; assay: Ames mutagenic assay, second strain column (printed TA1537), without (-) and with (+) metabolic activation; type: cell-based; settings: TA1537 as printed, (+) with metabolic activation
# Description: as §1, §2
# [4] = tested on: Salmonella strain TA1538; assay: Ames mutagenic assay, strain TA1538; type: cell-based
# Description: as §1, §2
# [5] = tested on: Salmonella strain TA98; assay: Ames mutagenic assay, strain TA98; type: cell-based; settings: TA98, (+) with metabolic activation
# Description: as §1, §2
# [6] = tested on: Salmonella strain TA100; assay: Ames mutagenic assay, strain TA100; type: cell-based
# Description: as §1, §2
# [7] = tested on: five strains of Salmonella bacteria; assay: Ames test, overall outcome; type: cell-based; settings: with and without metabolic activation
# Description: as §1, §2
compound,measurement,setting,value
"Cc1cc(C(C)(C)C)c(N)c(C)c1N [5tB24DAmX, 5-tertiaryButyl-2,4-diaminometaxylene]","lineshape coefficient A (quasi reaction rate constant, initial reactivity)",[1],.8716
"CCC(C)(C)c1ccc(N)c(C)c1N [3tA26TDA, 3-tertiaryAmyl-2,6-toluenediamine]","lineshape coefficient A (quasi reaction rate constant, initial reactivity)",[1],.08902
"Cc1c(N)ccc(C2(C)CCCC2)c1N [3tMCp26TDA, 3-tertiaryMethylcyclopentyl-2,6-toluenediamine]","lineshape coefficient A (quasi reaction rate constant, initial reactivity)",[1],.1722
"Cc1cc(C(C)C)c(N)cc1N [5iP24TDA, 5-isoPropyl-2,4-toluenediamine]","lineshape coefficient A (quasi reaction rate constant, initial reactivity)",[1],3.374
chlorotoluenediamine [Cl-TDA],quantity of test compound that gave positive mutagenicity results,[2]; (+) with metabolic activation,50 micrograms per test plate
same,quantity of test compound that gave positive mutagenicity results,[2]; (-) without metabolic activation,500 micrograms per test plate
same,quantity of test compound that gave positive mutagenicity results,[3],5000 micrograms per test plate
same,quantity of test compound that gave positive mutagenicity results,[4],500 micrograms per test plate
same,quantity of test compound that gave positive mutagenicity results,[5],500 micrograms per test plate
same,quantity of test compound that gave positive mutagenicity results,[6],500 micrograms per test plate
same,Ames test result,[7],Ames positive
"Cc1c(N)ccc(C(C)C)c1N [3iP26TDA, 3-isoPropyl-2,6-toluendiamine]","lineshape coefficient A (quasi reaction rate constant, initial reactivity)",[1],.5074
"Cc1cc(N)c(N)c(C(C)(C)C)c1 [3tB34TDA, 5-tertiaryButyl-3,4-toluenediamine]","lineshape coefficient A (quasi reaction rate constant, initial reactivity)",[1],.2764
"Cc1c(N)cc(C(C)(C)C)cc1N [4tB26TDA, 4-tertiaryButyl-2,6-toluenediamine]","lineshape coefficient A (quasi reaction rate constant, initial reactivity)",[1],3.867
same,"lineshape coefficient A (quasi reaction rate constant, initial reactivity)","[1]; listed as 4-tertiarybutyl-2,6-toluenediamine",3.87
"CC(C)(C)c1ccc(N)cc1N [tBBDA, tertiaryButyl-2,4-benzenediamine]",quantity of test compound that gave positive mutagenicity results,[4],1200 micrograms per test plate
same,quantity of test compound that gave positive mutagenicity results,[5],1800 micrograms per test plate
"Cc1cc(C(C)C)c(N)c(C(C)C)c1N [35DiP24TDA, 3.5-Diisopropyl-2,4-toluenediamine]","lineshape coefficient A (quasi reaction rate constant, initial reactivity)",[1],.7499
"CCc1cc(CC)c(N)c(C)c1N [35DE26TDA, 3,5-Diethyl-2,6-toluenediamine]","lineshape coefficient A (quasi reaction rate constant, initial reactivity)",[1],5.572
"Cc1c(N)c(C(C)(C)C)cc(C(C)(C)C)c1N [35DtB26TDA, 3,5-Ditertiarybutyl-2,6-toluenediamine]",quantity of test compound that gave positive mutagenicity results,[4],50 micrograms per test plate
same,quantity of test compound that gave positive mutagenicity results,[5],15 micrograms per test plate
same,quantity of test compound that gave positive mutagenicity results,[6],50 micrograms per test plate
same,Ames test result,[7],Ames positive
same,"lineshape coefficient A (quasi reaction rate constant, initial reactivity)",[1],.1601
"3-Cyclopentenyl-2,6-toluenediamine [3Cp26TDA]","lineshape coefficient A (quasi reaction rate constant, initial reactivity)",[1],.7173
"Cc1c(N)ccc(C(C)(C)C)c1N [3tB26TDA, 3-tert-butyl-2,6-toluenediamine]","lineshape coefficient A (quasi reaction rate constant, initial reactivity)",[1],.06721
same,"lineshape coefficient A (quasi reaction rate constant, initial reactivity)","[1]; listed as Monotertiarybutylated 2,6-TDA",0.06721
"Cc1c(N)c(C(C)C)cc(C(C)C)c1N [35DiP26TDA, 3,5-Diisopropyl-2,6-toluenediamine]","lineshape coefficient A (quasi reaction rate constant, initial reactivity)",[1],1.563
"CCc1cc(C)c(N)c(CC)c1N [35DE24TDA, 3,5-Diethyl-2,4-toluenediamine]","lineshape coefficient A (quasi reaction rate constant, initial reactivity)",[1],1.350
